For one compound, MIC results are on record in patent EP0114387A1, “Bis-guanidine compound salts, their preparation and microbicidal use” (HOECHST AKTIENGESELLSCHAFT, priority 1982, dated 1984).

Common to all, as to assay: Microbicidal activity, minimum inhibitory concentration to kill 10^6 germs per ml
Format in all cases: cell-based
Holding throughout (settings): room temperature, 10^6 Keime pro ml, read-out: minimale Hemmkonzentration

One test has as its system Aspergillus niger. The procedure: (§1) Die mikrobiozide Wirkung der erfindungsgemäßen Verbindungen zeigt Tabelle I (µg Wirkstoff/ml Wasser; Kontaktzeit 24 und 48 h; Raumtemperatur). Die angegebenen Zahlen bedeuten die minimalen Hemmkonzentrationen, um die vorgelegte Keimzahl von 10^6 Keimen pro ml abzutöten.
Another test deals with Proteus mirabilis. As to the method:
as §1

Another test has as its system Pseudomonas aeruginosa. As to the method:
as §1

Another test deals with Candida albicans. The procedure: as §1
Another test has as its system Klebsiella pneumoniae. As to the method: as §1
The next test relates to Staphylococcus aureus. The procedure: as §1
The subject of test [1] is Desulfovibrio desulfuricans 39. The procedure: as §1
Test [2] concerns Desulfovibrio desulfuricans 85. As to the method: as §1
For another test, the system named is Escherichia coli. The procedure: as §1

≈ marks a conversion by molar mass, not a printed value. Like-named read-outs stand apart in the source and are kept apart here. Bounds are passed on as bounds.

For `CCCCCCCCCCN(CCCNC(=N)N)CCCNC(=N)N` [Beispiel 3], the MIC with Aspergillus niger (contact time 24 h) was > 1000 µg/mL; in the test with Aspergillus niger (contact time 48 h), > 1000 µg/mL; in the test with Proteus mirabilis (contact time 24 h) it was 250 µg/mL (≈ 703 µM); with Proteus mirabilis (contact time 48 h) it was 62.5 µg/mL (≈ 176 µM); in the test with Pseudomonas aeruginosa (contact time 24 h) it was 500 µg/mL (≈ 1410 µM); in the test on Pseudomonas aeruginosa (contact time 48 h) it was 62.5 µg/mL (≈ 176 µM). Besides, the MIC came to 250 µg/mL (≈ 703 µM) in the test with Candida albicans (contact time 24 h); 62.5 µg/mL (≈ 176 µM) with Candida albicans (contact time 48 h); 500 µg/mL (≈ 1410 µM) with Klebsiella pneumoniae (contact time 24 h); 62.5 µg/mL (≈ 176 µM) in the test on Klebsiella pneumoniae (contact time 48 h); 250 µg/mL (≈ 703 µM) in the test with Staphylococcus aureus (contact time 24 h); 62.5 µg/mL (≈ 176 µM) with Staphylococcus aureus (contact time 48 h). Besides, the MIC was determined as 15.6 µg/mL (≈ 43.9 µM) in test [1] (contact time 24 h); 7.8 µg/mL (≈ 21.9 µM) in [1] (contact time 48 h); 7.8 µg/mL (≈ 21.9 µM) in [2] (contact time 24 h); 7.8 µg/mL (≈ 21.9 µM) in test [2] (contact time 48 h); 250 µg/mL (≈ 703 µM) in the test with Escherichia coli (contact time 24 h); 62.5 µg/mL (≈ 176 µM) in the test on Escherichia coli (contact time 48 h).
